Data reported in patent US9321722B2, “Bis-indolic derivatives, their uses in particular as antibacterials” (UNIVERSITE JOSEPH FOURIER, priority 2011, dated 2016).
≈ marks a conversion by molar mass, not a printed value. Where a name gives a salt, the structure may show the parent alone. Read-outs that look alike come from different tables or passages of the source.

Experiments:
[1] = system: Bacillus subtilis CIP 5262; experiment: MIC microdilution (Table I-1); assay type: cell-based; details: CIP5262, read after 18 hours, read-out: MIC
Protocol: (§1) The microdilution method recommended by the Clinical and Laboratory Standard Institute [M07-A8, Vol. 29, N^o 2] was used. The activity of indolic compounds was tested against 29 bacterial strains belonging to 17 different species and 12 different genera (Staphylococcus, Streptococcus, Enterococcus, Listeria, Bacillus, Haemophilus, Escherichia, Klebsiella, Enterobacter, Serratia, Pseudomonas, and Acinetobacter). Bacterial inocula were prepared in Mueller Hinton broth (MH2, bioMerieux, Marcy L'Etoile, France), supplemented with 10% sheep blood for fastidious species (i.e., Streptococcus pneumoniae and Haemophilus influenzae). They were dispensed in 96 well microtiter plates (5×10^5 CFU/ml of final inoculum). Indolic compounds were added to the wells as to obtain two-fold serial concentrations (0.50-128 mg/L of final concentrations). Plates were incubated at 37° C. in ambient air, or at 37° C. in 5% CO2 enriched atmosphere for fastidious species. […] Drug-free cultures served as growth controls. Cultures receiving gentamicin, ciprofloxacin or cefotaxime served as positive controls.

E. faecium CIP 54.32 = experiment: MIC microdilution (Table I-1); assay type: cell-based; details: Enterococcus faecium, CIP54, read after 18 hours, read-out: MIC
Protocol: as §1

[2] = system: Listeria innocua CIP 80.11; experiment: MIC microdilution (Table I-1); assay type: cell-based; details: CIP80, read after 18 hours, read-out: MIC
Protocol: as §1

S. pneumoniae ATCC 49619 = experiment: MIC microdilution (Table I-1); assay type: cell-based; details: Streptococcus pneumoniae, ATCC49619, read after 18 hours
Protocol: as §1

[3] = system: Serratia marcescens CIP 103551; experiment: MIC microdilution (Table I-1); assay type: cell-based; details: CIP103551, read after 18 hours
Protocol: as §1

S. aureus ATCC 25923 = experiment: MIC microdilution (Table I-1); assay type: cell-based; details: Staphylococcus aureus, ATCC25923, read after 18 hours
Protocol: as §1

[4] = system: S. agalactiae (group B) ATCC 12400; experiment: MIC microdilution (Table I-1); assay type: cell-based; details: Streptococcus agalactiae, ATCC12400, read after 18 hours, read-out: MIC
Protocol: as §1

[5] = system: Acinetobacter baumanii ATCC 19606; experiment: MIC microdilution (Table I-1); assay type: cell-based; details: Acinetobacter baumannii, ATCC19606, read after 18 hours
Protocol: as §1

[6] = system: Pseudomonas aeruginosa CIP 5933; experiment: MIC microdilution (Table I-1); assay type: cell-based; details: CIP5933, read after 18 hours
Protocol: as §1

[7] = system: S. pyogenes (group A) CIP 104226; experiment: MIC microdilution (Table I-1); assay type: cell-based; details: Streptococcus pyogenes, CIP104226, read after 18 hours, read-out: MIC
Protocol: as §1

S. mitis CIP 103335 = experiment: MIC microdilution (Table I-1); assay type: cell-based; details: Streptococcus mitis, CIP103335, read after 18 hours, read-out: MIC
Protocol: as §1

[8] = system: Enterobacter cloacae ATCC 13047; experiment: MIC microdilution (Table I-1); assay type: cell-based; details: ATCC13047, read after 18 hours
Protocol: as §1

E. faecalis ATCC 29212 = experiment: MIC microdilution (Table I-1); assay type: cell-based; details: Enterococcus faecalis, ATCC29212, read after 18 hours, read-out: MIC
Protocol: as §1

[9] = system: Klebsiella pneumoniae ATCC 35657; experiment: MIC microdilution (Table I-1); assay type: cell-based; details: ATCC35657, read after 18 hours, read-out: MIC
Protocol: as §1

[10] = system: Escherichia coli ATCC 25922; experiment: MIC microdilution (Table I-1); assay type: cell-based; details: ATCC25922, read after 18 hours
Protocol: as §1

[11] = system: Haemophilus influenzae ATCC 49766; experiment: MIC microdilution (Table I-1); assay type: cell-based; details: Haemophilus influenzae, ATCC49766, 18 h
Protocol: as §1

S. aureus ATCC 29213 = experiment: MIC microdilution (Table I-1); assay type: cell-based, Staphylococcus aureus; details: Staphylococcus aureus, ATCC29213, read after 18 hours, read-out: MIC
Protocol: as §1

S. aureus CIP 103428 = experiment: MIC microdilution (Table I-1); assay type: cell-based, Staphylococcus aureus; details: Staphylococcus aureus, CIP103428, read after 18 hours, read-out: MIC
Protocol: as §1

S. aureus ATCC 6538 = experiment: MIC microdilution (Table I-1); assay type: cell-based, Staphylococcus aureus; details: Staphylococcus aureus, ATCC6538, read after 18 hours, read-out: MIC
Protocol: as §1

S. aureus ATCC 9144 = experiment: MIC microdilution (Table I-1); assay type: cell-based, Staphylococcus aureus; details: Staphylococcus aureus, ATCC9144, read after 18 hours, read-out: MIC
Protocol: as §1

[12] = system: S. aureus ATCC 106414 (VISA); experiment: MIC microdilution (Table I-1); assay type: cell-based, Staphylococcus aureus; details: Staphylococcus aureus, read after 18 hours, read-out: MIC
Protocol: as §1

S. aureus SA-1199B = experiment: MIC microdilution (Table I-1); assay type: cell-based, Staphylococcus aureus; details: Staphylococcus aureus, SA1199B, 18 h
Protocol: as §1

[13] = system: S. aureus ATCC 33592 (MRSA); experiment: MIC microdilution (Table I-1); assay type: cell-based, Staphylococcus aureus; details: Staphylococcus aureus, read after 18 hours, read-out: MIC
Protocol: as §1

S. aureus CIP 65.6 = experiment: MIC microdilution (Table I-1); assay type: cell-based, Staphylococcus aureus; details: Staphylococcus aureus, CIP65, read after 18 hours, read-out: MIC
Protocol: as §1

[14] = system: S. aureus CIP 65.25 (MRSA); experiment: MIC microdilution (Table I-1); assay type: cell-based, Staphylococcus aureus; details: Staphylococcus aureus, read after 18 hours, read-out: MIC
Protocol: as §1

S. pneumoniae ATCC 6303 = experiment: MIC microdilution (Table I-1); assay type: cell-based, Streptococcus pneumoniae; details: Streptococcus pneumoniae, ATCC6303, read after 18 hours, read-out: MIC
Protocol: as §1

[15] = system: S. epidermidis ATCC 12228; experiment: MIC microdilution (Table I-1); assay type: cell-based, Staphylococcus epidermidis; details: Staphylococcus epidermidis, ATCC12228, read after 18 hours, read-out: MIC
Protocol: as §1

[16] = system: S. epidermidis CIP 103627; experiment: MIC microdilution (Table I-1); assay type: cell-based, Staphylococcus epidermidis; details: Staphylococcus epidermidis, CIP103627, read after 18 hours, read-out: MIC
Protocol: as §1

S. epidermidis CIP 81.55 = experiment: MIC microdilution (Table I-1); assay type: cell-based, Staphylococcus epidermidis; details: Staphylococcus epidermidis, CIP81, read after 18 hours, read-out: MIC
Protocol: as §1

[17] = system: 29 bacterial strains belonging to 17 different species; experiment: Intrinsic antibacterial activity, MIC on the bacterial panel; assay type: cell-based; details: result in words
Protocol: as §1

[18] = system: MRC5 (human lung fibroblast); experiment: In vitro cytotoxicity; assay type: cell-based
Protocol: (§2) In vitro cytotoxicity was assayed on three cell lines—KB (human mouth carcinoma), MCR5 (human lung fibroblast) and HCT116 (human colon tumor). Results are presented in table III as % of cellular growth inhibition in presence of 10^−5 M and 10^−6 M of the tested bis-indolic derivatives.

[19] = system: KB (human mouth carcinoma); experiment: In vitro cytotoxicity; assay type: cell-based
Protocol: as §2

[20] = system: HCT116 (human colon tumor); experiment: In vitro cytotoxicity; assay type: cell-based
Protocol: as §2

[21] = MRC5, read-out: % of cellular growth inhibition
[22] = read-out: % of cellular growth inhibition
[23] = HCT-116, read-out: % of cellular growth inhibition

For `CC(C)(C)OC(=O)NCC(NC(=O)C(F)(F)F)c1c[nH]c2ccc(Br)cc12` (stereo not drawn) [Compound 13, tert-Butyl(2-(5-bromo-1H-indol-3-yl)-2-(2,2,2-trifluoroacetamido)ethyl)carbamate], the MIC [1] was 128 µg/mL (≈ 284 µM), the MIC (E. faecium CIP 54.32) was greater than 128 µg/mL and the MIC [2] was greater than 128 µg/mL. For the same molecule, the MIC (S. pneumoniae ATCC 49619) was 128 µg/mL (≈ 284 µM), the MIC [3] was greater than 128 µg/mL and the MIC (S. aureus ATCC 25923) was greater than 128 µg/mL. The MIC [4] was 128 µg/mL (≈ 284 µM), the MIC [5] was greater than 128 µg/mL and the MIC [6] was greater than 128 µg/mL. It also gave an MIC [7] of 128 µg/mL (≈ 284 µM), an MIC (S. mitis CIP 103335) greater than 128 µg/mL and an MIC [8] greater than 128 µg/mL. For the same molecule, the MIC (E. faecalis ATCC 29212) was greater than 128 µg/mL, the MIC [9] was greater than 128 µg/mL and the MIC [10] was greater than 128 µg/mL. For the same molecule, the MIC [11] was greater than 128 µg/mL, the MIC (S. aureus ATCC 29213) was 128 µg/mL (≈ 284 µM) and the MIC (S. aureus CIP 103428) was 64 µg/mL (≈ 142 µM). It also gave an MIC (S. aureus ATCC 6538) of 64 µg/mL (≈ 142 µM), an MIC (S. aureus ATCC 9144) greater than 128 µg/mL and an MIC [12] greater than 128 µg/mL. It also gave an MIC (S. aureus SA-1199B) of 64 µg/mL (≈ 142 µM), an MIC [13] greater than 128 µg/mL and an MIC (S. aureus CIP 65.6) greater than 128 µg/mL. It also gave an MIC [14] greater than 128 µg/mL, an MIC (S. pneumoniae ATCC 6303) of 128 µg/mL (≈ 284 µM) and an MIC [15] greater than 128 µg/mL. The MIC [16] was greater than 128 µg/mL, the MIC (S. epidermidis CIP 81.55) was greater than 128 µg/mL and the intrinsic antibacterial activity [17] was “lack of intrinsic antibacterial activity”.

With `O=C(C(=O)N1CCNCC1c1c[nH]c2ccc(Br)cc12)c1c[nH]c2ccc(Br)cc12` (stereo not drawn) [Compound 7, 1-(5-bromo-1H-indol-3-yl)-2-(2-(5-bromo-1H-indol-3-yl)piperazin-1-yl)ethane-1,2-dione hydrochloride] the inhibition at 1 µM [18, 21] was 0%, the inhibition at 10 µM [18, 21] was 0% and the inhibition at 1 µM [19, 22] was 0%. The inhibition at 10 µM [19, 22] was 4 ± 11%, the inhibition at 1 µM [20, 23] was 0% and the inhibition at 10 µM [20, 23] was 22 ± 7%.

Work on `O=C(C(=O)N1CCOCC1c1c[nH]c2ccc(Br)cc12)c1c[nH]c2ccc(Br)cc12` (stereo not drawn) [Compound 6e, 1-(5-Bromo-1H-indol-3-yl)-2-(3-(5-bromo-1H-indol-3-yl)morpholino)ethane-1,2-dione] yielded an inhibition at 10 µM ([18]; MRC5, 10^−5 M, read-out: % of cellular growth inhibition) of 0%, an inhibition at 1 µM ([18]; MRC5, 10^−6 M, read-out: % of cellular growth inhibition (converted)) of 0% and an inhibition at 10 µM ([19]; KB, 10^−5 M, read-out: % of cellular growth inhibition) of 29 ± 6%. It also gave an inhibition at 1 µM ([19]; KB, 10^−6 M, read-out: % of cellular growth inhibition (converted)) of 0%, an inhibition at 10 µM ([20]; HCT-116, HCT116, 10^−5 M, read-out: % of cellular growth inhibition) of 24 ± 6% and an inhibition at 1 µM ([20]; HCT-116, HCT116, 10^−6 M, read-out: % of cellular growth inhibition (converted)) of 3%.
